The source of these data is patent US8383888B1, “Plants and plant products useful for biofuel manufacture and feedstock, and methods of producing same” (University of Kentucky Research Foundation, priority 2008, dated 2013).

The subject of assay [1] is Arabidopsis ixr mutants. The conditions noted are these: cited from earlier work.
The test system of assay [2] is plants. Conditions: previous studies; cited from earlier work.
For assay [3], the system named is Arabidopsis thaliana. The experiment in a line: Growth of plants on plates containing isoxaben. The conditions noted are these: 2 nM isoxaben in plates. It counts as in vivo. As for the experimental part: Studies with a plant (Arabidopsis thaliana) expressing a CESA-1 with a A903V mutation (“qxr” or “ags”) have shown significant reorganization of the mutant cell wall. Feedback between the gene mutation and cell wall structure was determined by FTIR analysis of the polysaccharide fingerprint region. The following conclusions were ascertained; firstly, the qxr mutant has aberrant root hair formation, which can be observed using light microscopy and have been described for cell wall gene deletion alleles. The highly elongated cell shape of root hairs has been used as model to define molecular players in cell elongation and a plausible explanation for the altered root hair phenotype is consistent with a defect in cell wall structure. […] Next, the inventors explored whether treating qxr mutants with the cellulose inhibitor isoxaben at minute doses induced a synergistic effect.

With `CCC(C)(CC)c1cc(NC(=O)c2c(OC)cccc2OC)on1` [isoxaben, N-(3-[1-ethyl-1-methylpropyl]-5-isoxazolyl)-2,6,dimethoxybenzamide], the “resistance of mutants to the herbicide” value in assay [1] (ixr1-1 and ixr1-2 mutations) was “high level of resistance”. Besides, the “drug tolerance of ixr1-1 relative to wild type” value in assay [1] (ixr1-1 homozygotes) is “approximately 300 times”. For the same compound, the “resistance of mutants to the cellulose synthesis inhibitor” value in assay [1] (ixr1-2 and ixr2-1, forward chemical genetics screen) is “conferring resistance”. Also, the lethal dose in assay [2] was 5 nM. Besides, in assay [3] (qxr (CESA-1 A903V)), the “effect on qxr mutant plants” value is reported as “dramatically swollen organs”. Also, the “effect on wild type plants (swollen organs)” value in assay [3] (wild type) is on record as “did not”.
